Data reported in patent US10752609B2, “GSK-3 inhibitors” (priority 2016, dated 2020).
Where two headings read alike, the source gives them in different places.

Key:
pTau = pTau assay (no method described); type: cell-based
GSK3β = GSK3β (Homo sapiens, UniProt P49841); assay: GSK3β kinase assay (Caliper LabChip3000 mobility shift, fluoresceinated peptide substrate); type: biochemical
Experimental: (§1) The kinase assay was performed in V-bottom 384-well plates. […] The reaction was incubated at room temperature for 20 hours and terminated by adding 45 μl of 35 mM EDTA to each sample. The reaction mixture was analyzed on the Caliper LabChip3000 (Caliper, Hopkinton, Mass.) by electrophoretic separation of the unphosphorylated substrate and phosphorylated product. […] Compounds were dissolved at 10 mM in dimethylsulfoxide (DMSO) and evaluated at eleven concentrations. IC50 values were derived by non-linear regression analysis.

GSK3α = GSK3α (Homo sapiens, UniProt P49840); assay: GSK3α kinase assay (Caliper LabChip3000 mobility shift, fluoresceinated peptide substrate)
GSK3α, sequence (P49840 whole entry, species assumed): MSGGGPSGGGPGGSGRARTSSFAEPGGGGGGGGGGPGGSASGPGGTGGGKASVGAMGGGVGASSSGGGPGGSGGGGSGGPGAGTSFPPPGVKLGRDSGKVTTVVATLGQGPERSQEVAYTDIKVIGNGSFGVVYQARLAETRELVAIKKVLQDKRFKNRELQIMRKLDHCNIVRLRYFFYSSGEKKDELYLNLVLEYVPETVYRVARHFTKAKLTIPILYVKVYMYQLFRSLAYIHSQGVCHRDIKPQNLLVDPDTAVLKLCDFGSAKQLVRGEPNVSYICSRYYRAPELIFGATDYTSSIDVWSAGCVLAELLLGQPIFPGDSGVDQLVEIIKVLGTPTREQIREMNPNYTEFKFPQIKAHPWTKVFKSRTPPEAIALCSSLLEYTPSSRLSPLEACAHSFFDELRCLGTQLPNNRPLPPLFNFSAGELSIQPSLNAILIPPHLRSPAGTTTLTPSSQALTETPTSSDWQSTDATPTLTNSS
Experimental: as §1

[1] = 250 pM enzyme, 20 uM ATP, 1.5 uM peptide, 20 hours room temperature, first value of cell GSK3β/GSK3α, read-out: GSK3β (nM), IC50

GSK3β, sequence (P49841 whole entry, species assumed): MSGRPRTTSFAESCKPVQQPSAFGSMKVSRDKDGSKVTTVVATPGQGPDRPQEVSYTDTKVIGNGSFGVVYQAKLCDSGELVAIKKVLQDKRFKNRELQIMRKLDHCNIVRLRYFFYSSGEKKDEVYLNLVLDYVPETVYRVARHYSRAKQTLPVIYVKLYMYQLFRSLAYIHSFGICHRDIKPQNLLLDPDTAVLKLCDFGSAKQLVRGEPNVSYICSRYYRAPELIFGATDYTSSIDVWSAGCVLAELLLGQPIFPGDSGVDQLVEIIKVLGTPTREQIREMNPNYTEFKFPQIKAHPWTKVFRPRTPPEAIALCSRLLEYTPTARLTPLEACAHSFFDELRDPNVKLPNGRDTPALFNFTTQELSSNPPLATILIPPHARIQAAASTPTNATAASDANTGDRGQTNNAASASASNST

| Structure (SMILES) | IC50 (pTau) [nM] | IC50 (GSK3β; [1]) [nM] | IC50 (GSK3α) [nM] | IC50 (GSK3β) [nM] |
| --- | --- | --- | --- | --- |
| O=C(Nc1cnccc1-c1ccc(F)cc1F)c1ccnc(Nc2cccnn2)n1 [Example 164, N-(4-(2,4-Difluorophenyl)pyridin-3-yl)-2-(pyridazin-3-ylamino)pyrimidine-4-carboxamide] | 10000 | 1500 | 780 |  |
| CN1CCC(Nc2nccc(C(=O)Nc3cnccc3-c3ccccc3)n2)CC1 [Example 165, 2-((1-Methylpiperidin-4-yl)amino)-N-(4-phenylpyridin-3-yl)pyrimidine-4-carboxamide] | 3300 | 91 | 110 |  |
| CCCC1(c2cc(Cl)ncc2NC(=O)c2ccnc(NC3CC3)n2)OCCO1 [Example 166, N-(6-Chloro-4-(2-propyl-1,3-dioxolan-2-yl)pyridin-3-yl)-2-(cyclopropylamino)pyrimidine-4-carboxamide] | 220 | 0.73 | 1.7 |  |
| CCCC1(c2cc(Cl)ncc2NC(=O)c2ccnc(NC3CCOCC3)n2)OCCO1 [Example 167, N-(6-Chloro-4-(2-propyl-1,3-dioxolan-2-yl)pyridin-3-yl)-2-((tetrahydro-2H-pyran-4-yl)amino)pyrimidine-4-carboxamide] | 69 | 0.43 | 0.47 |  |
| O=C(Nc1cnc(F)cc1N1CCOCC1)c1ccnc(Nc2cccc(Cl)c2)n1 [Example 168] | 21 | 0.17 | 0.2 |  |
| O=C(Nc1cnc(F)cc1N1CCOCC1)c1ccnc(Nc2ccc(Cl)c(F)c2)n1 [Example 169, 2-((4-Chloro-3-fluorophenyl)amino)-N-(6-fluoro-4-morpholinopyridin-3-yl)pyrimidine-4-carboxamide] | 34 | 0.27 | 0.15 |  |
| O=C(Nc1cnc(F)cc1N1CCOCC1)c1ccnc(Nc2ccc(Cl)cc2)n1 [Example 170] | 48 | 0.34 | 0.21 |  |
| O=C(Nc1cnc(F)cc1N1CCOCC1)c1ccnc(Nc2ccc(Cl)cc2F)n1 [Example 171, 2-((4-Chloro-2-fluorophenyl)amino)-N-(6-fluoro-4-morpholinopyridin-3-yl)pyrimidine-4-carboxamide] | 59 |  | 0.47 | 0.58 |
| O=C(Nc1cnc(F)cc1N1CCOCC1)c1ccnc(Nc2cccc(OC(F)(F)F)c2)n1 [Example 172, N-(6-Fluoro-4-morpholinopyridin-3-yl)-2-((3-(trifluoromethoxy)phenyl)amino)pyrimidine-4-carboxamide] | 160 | 0.89 | 0.46 |  |
| CC(C)(C)CNc1nccc(C(=O)Nc2cnc(F)cc2N2CCOCC2)n1 [Example 173] | 69 |  | 0.49 | 1.1 |
| N#Cc1ccc(Nc2nccc(C(=O)Nc3cnc(F)cc3N3CCOCC3)n2)cc1 [Example 174, 2-((4-Cyanophenyl)amino)-N-(6-fluoro-4-morpholinopyridin-3-yl)pyrimidine-4-carboxamide] | 54 | 1.1 | 1.6 |  |
| O=C(Nc1cnc(F)cc1N1CCOCC1)c1ccnc(NC2COC2)n1 [Example 175, N-(6-Fluoro-4-morpholinopyridin-3-yl)-2-(oxetan-3-ylamino)pyrimidine-4-carboxamide] | 2100 | 46 | 27 |  |
| N#Cc1ccc(Nc2nccc(C(=O)Nc3cnc(F)cc3N3CCC(F)(F)CC3)n2)cc1 [Example 176, 2-((4-Cyanophenyl)amino)-N-(4-(4,4-difluoropiperidin-1-yl)-6-fluoropyridin-3-yl)pyrimidine-4-carboxamide] | 28 |  | 0.28 | 0.32 |
| O=C(Nc1cnc(F)cc1N1CCC(F)(F)CC1)c1ccnc(Nc2ccccc2)n1 [Example 177, N-(4-(4,4-Difluoropiperidin-1-yl)-6-fluoropyridin-3-yl)-2-(phenylamino)pyrimidine-4-carboxamide] | 60 | 0.47 | 0.41 |  |
| O=C(Nc1cnc(F)cc1N1CCC(F)(F)CC1)c1ccnc(Nc2ccc(Cl)cc2)n1 [Example 178, 2-((4-Chlorophenyl)amino)-N-(4-(4,4-difluoropiperidin-1-yl)-6-fluoropyridin-3-yl)pyrimidine-4-carboxamide] | 69 | 0.67 | 0.57 |  |
| O=C(Nc1cnc(F)cc1N1CCC(F)(F)CC1)c1ccnc(NCC2CC2)n1 [Example 179, 2-((Cyclopropylmethyl)amino)-N-(4-(4,4-difluoropiperidin-1-yl)-6-fluoropyridin-3-yl)pyrimidine-4-carboxamide] | 94 | 0.7 | 0.61 |  |
| O=C(Nc1cnc(F)cc1N1CCC(F)(F)CC1)c1ccnc(Nc2ccc(F)cc2)n1 [Example 180, N-(4-(4,4-Difluoropiperidin-1-yl)-6-fluoropyridin-3-yl)-2-((4-fluorophenyl)amino)pyrimidine-4-carboxamide] | 68 | 0.9 | 0.39 |  |

| Structure (SMILES) | IC50 (pTau) [nM] | IC50 (GSK3β; [1]) [nM] | IC50 (GSK3α) [nM] | IC50 (GSK3β) [nM] |
| --- | --- | --- | --- | --- |
| O=C(Nc1cnc(F)cc1N1CCC(F)(F)CC1)c1ccnc(Nc2ccc(OC(F)F)cc2)n1 [Example 181, 2-((4-(Difluoromethoxy)phenyl)amino)-N-(4-(4,4-difluoropiperidin-1-yl)-6-fluoropyridin-3-yl)pyrimidine-4-carboxamide] | 77 | 1.2 | 1.6 |  |
| Cc1cc(N2CCC(F)(F)CC2)c(NC(=O)c2ccnc(Nc3ccc(Cl)cc3)n2)cn1 [Example 182, 2-((4-Chlorophenyl)amino)-N-(4-(4,4-difluoropiperidin-1-yl)-6-methylpyridin-3-yl)pyrimidine-4-carboxamide] | 220 | 2.5 | 1 |  |
| O=C(Nc1cnc(F)cc1N1CCC(F)(F)CC1)c1ccnc(NC2CCOCC2)n1 [Example 184, N-(4-(4,4-Difluoropiperidin-1-yl)-6-fluoropyridin-3-yl)-2-((tetrahydro-2H-pyran-4-yl)amino)pyrimidine-4-carboxamide] | 400 | 11 | 6 |  |
| O=C(Nc1cncc(-c2ccccc2F)c1)c1ccnc(Nc2cccc(C(F)(F)F)c2)n1 [Example 185, N-(5-(2-Fluorophenyl)pyridin-3-yl)-2-((3-(trifluoromethyl)phenyl)amino)pyrimidine-4-carboxamide] | 530 | 5.9 | 2.3 |  |
| O=C(Nc1cncc(-c2ccccc2F)c1)c1ccnc(NCC2CC2)n1 [Example 186, 2-((Cyclopropylmethyl)amino)-N-(5-(2-fluorophenyl)pyridin-3-yl)pyrimidine-4-carboxamide] | 5000 | 6 | 9.9 |  |
| O=C(Nc1cncc(-c2ccccc2F)c1)c1ccnc(Nc2cccc(OC(F)(F)F)c2)n1 [Example 187, N-(5-(2-Fluorophenyl)pyridin-3-yl)-2-((3-(trifluoromethoxy)phenyl)amino)pyrimidine-4-carboxamide] | 2500 | 13 | 7.9 |  |
| O=C(Nc1cncnc1OCC(F)(F)F)c1ccnc(NCC2CCC2)n1 [Example 188, 2-((Cyclobutylmethyl)amino)-N-(4-(2,2,2-trifluoroethoxy)pyrimidin-5-yl)pyrimidine-4-carboxamide] | 180 |  | 1 | 0.83 |
| CC(C)(C)CNc1nccc(C(=O)Nc2cncnc2OCC(F)(F)F)n1 [Example 189, 2-(Neopentylamino)-N-(4-(2,2,2-trifluoroethoxy)pyrimidin-5-yl)pyrimidine-4-carboxamide] | 410 | 1.43 | 0.8 |  |
| O=C(Nc1cncnc1OCC(F)(F)F)c1ccnc(NCC2CCOCC2)n1 [Example 190, 2-(((Tetrahydro-2H-pyran-4-yl)methyl)amino)-N-(4-(2,2,2-trifluoroethoxy)pyrimidin-5-yl)pyrimidine-4-carboxamide] | 190 |  | 2.6 | 3.1 |
| CC1(CNc2nccc(C(=O)Nc3cncnc3OCC(F)(F)F)n2)COC1 [Example 191, 2-(((3-Methyloxetan-3-yl)methyl)amino)-N-(4-(2,2,2-trifluoroethoxy)pyrimidin-5-yl)pyrimidine-4-carboxamide] | 240 |  | 4.3 | 3.3 |
| O=C(Nc1cncnc1OCC(F)(F)F)c1ccnc(NCC2CC2)n1 [Example 192, 2-((Cyclopropylmethyl)amino)-N-(4-(2,2,2-trifluoroethoxy)pyrimidin-5-yl)pyrimidine-4-carboxamide] | 480 | 4.8 | 4.8 |  |
| O=C(Nc1cncnc1)c1ccnc(Nc2cccc(-c3ccc(Cl)cc3)c2)n1 [Example 193, 2-((4′-Chloro-[1,1′-biphenyl]-3-yl)amino)-N-(pyrimidin-5-yl)pyrimidine-4-carboxamide] | 620 | 3.4 | 1.8 |  |
| O=C(Nc1cncnc1)c1ccnc(Nc2cccc(-c3ccccc3)c2)n1 [Example 194, 2-([1,1′-Biphenyl]-3-ylamino)-N-(pyrimidin-5-yl)pyrimidine-4-carboxamide] | 390 | 4.4 | 2.9 |  |
| Cc1ccccc1-c1cccc(Nc2nccc(C(=O)Nc3cncnc3)n2)c1 [Example 196, 2-((2′-Methyl-[1,1′-biphenyl]-3-yl)amino)-N-(pyrimidin-5-yl)pyrimidine-4-carboxamide] | 840 | 5.2 | 3.9 |  |
| O=C(Nc1cncnc1)c1ccnc(NCC2CC2c2ccc(F)cc2F)n1 (stereo not drawn) [Example 197, 2-(((2-(2,4-Difluorophenyl)cyclopropyl)methyl)amino)-N-(pyrimidin-5-yl)pyrimidine-4-carboxamide] | 5100 | 24 | 21 |  |
| O=C(Nc1cncnc1)c1ccnc(NCC2CC2c2ccc(F)cc2)n1 (stereo not drawn) [Example 198, 2-(((2-(4-Fluorophenyl)cyclopropyl)methyl)amino)-N-(pyrimidin-5-yl)pyrimidine-4-carboxamide] | 6500 | 35 | 28 |  |
